Patent US5006560A, “Use of GABA-B selective agonists as anti-tussive agents” (Schering Corporation, priority 1989, dated 1991)

Tests used:
capsaicin-induced cough = test: Capsaicin-induced cough in guinea pigs; type: in vivo, guinea pig; conditions: for ED50: Cavia porcellus, sc, capsaicin (0.3 mM) aerosol, guinea pigs, subcutaneous, read-out: ED50, reduction of cough frequency
Experimental: (§1) Unanesthetized male Dunkin Hartley guinea pigs (250-600 g) are placed into transparent plexiglas chambers and exposed to aerosols of capsaicin (300 μM), citric acid (0.55M), or their vehicles at an airflow of 4 L/min. Citric acid is dissolved in 0.9% saline vehicle and capsaicin is dissolved in 10% ethanol, 90% saline vehicle. The volume of solution aerosolized every minute is approximately 0.4 ml. The animals are first exposed to a vehicle aerosol for 4 minutes and then are exposed to citric acid or capsaicin aerosol for an additional 4 minutes. Coughing is detected by a microphone that is placed in the chamber and connected to an audio monitor and chart recorder. Coughs produced deflections on the chart paper which are later counted to determine a cough frequency. Test compounds are administered subcutaneously prior to exposure to citric acid or capsaicin. […] All statistics are expressed relative to control values (unpaired t-test). The results are shown in FIGS. 1A, 1B, 1C and 1D and are discussed below.
(§2) In FIGS. 1C and 1D, 3-APPA or vehicle was administered 45 minutes prior to data collection.
(§3) Guinea pigs were exposed to citric acid at a concentration of 0.55M. This dose of citric acid produced cough frequencies of 10-13 per exposure. The dose of capsaicin used was 0.3 mM and this dose produced cough frequencies of 7-9 per exposure. These doses produced consistent responses and were well tolerated by the animals. Larger doses (up to 2M for citric acid and 3 mM for capsaicin) produced distress to the animals. Lower doses (to 0.2M for citric acid and 0.03 mM for capsaicin) produced inconsistent cough responses.

[1] = system: electrically-induced cough; test: Electrically-induced cough in cats (superior laryngeal nerve stimulation); type: in vivo, cat; conditions: electrical stimulus
Experimental: (§4) Cats (2.2-3.5 kg) are anesthetized with sodium pentobarbital (35 mg/kg, i.p.). Supplemental anesthetic (5 mg/kg, i.v.) is administered as required. Cannulas are placed in a femoral vein and artery for administering drugs and measuring arterial blood pressure, respectively. A tracheostomy is performed.
(§5) Electromyograms (EMGs) of respiratory muscle activity are recorded via bipolar silver wire electrodes placed in the diaphragm and rectus abdominus muscles by the technique of Basmajian and Stecko (1962). The EMGs are amplified (1000-2000×), filtered (500 Hz-10 KHz), monitored on an oscilloscope, and integrated with a "Leaky" RC circuit (100 ms time constant).
(§6) These stimuli only elicit coughs, apneas, apneusis, or augmented breaths (sighs).
(§7) Coughing is produced by coordinated bursts of activity in inspiratory and expiratory muscles. We define a cough as a burst of activity at least 50% greater than control levels in the diaphragm (inspiratory muscle) immediately followed by or coincident with a burst of activity in the rectus abdominus muscle (expiratory muscle). These criteria eliminate apneas or apneusis (no inspiratory or expiratory bursts) and augmented breaths (no expiratory muscle activity). Test compounds are administered intravenously to determine their effects on mechanically (probe) and electrically (SLN) induced cough. […]

[2] = system: mechanically-induced cough; test: Mechanically-induced cough in cats (probing intrathoracic trachea); type: in vivo, cat; conditions: mechanical stimulus
Experimental: as §4, §5, §6, §7

[3] = system: citric acid-induced cough; test: Citric acid-induced cough in guinea pigs; type: in vivo, guinea pig; conditions: for ED50: Cavia porcellus, sc, citric acid (0.55M) aerosol, guinea pigs, subcutaneous, read-out: ED50, reduction of cough frequency
Experimental: as §1, §2, §3

[4] = 3-APPA 3 mg/kg i.v., baclofen 0.7 mg/kg i.v.

SMILES	effect of prior treatment with 3-APPA on antitussive effect of baclofen (capsaicin-induced cough; capsaicin model, 3-APPA 10 mg/kg s.c. before baclofen 1.0 mg/kg s.c., FIG. 1D)	effect of 3-APPA on antitussive response to baclofen [1, 4]	effect of 3-APPA on antitussive response to baclofen [2, 4]	effect of prior treatment with 3-APPA on antitussive effect of baclofen ([3]; citric acid model, 3-APPA 10 mg/kg s.c. before baclofen 1.0 mg/kg s.c., FIG. 1C)	ED50 (capsaicin-induced cough) [mg/kg]	ED50 [3] [mg/kg]	reduction in cough frequency (capsaicin-induced cough; capsaicin model, FIG. 1B, 1 hour after s.c. treatment)	inhibitory effect on coughing ([1]; cumulative i.v. doses, 5 minutes after injection, FIG. 3B)	inhibitory effect on coughing ([2]; cumulative i.v. doses, 5 minutes after injection, FIG. 3A)	reduction in cough frequency ([3]; citric acid model, FIG. 1A, 1 hour after s.c. treatment)
NCCCP(=O)(O)O [3-APPA, 3-aminopropylphosphonic acid]	attenuated	attenuated these responses	attenuated these responses	attenuated	–	–	–	–	–	–
COc1ccc2c3c1O[C@H]1[C@@H](O)C=C[C@H]4[C@@H](C2)N(C)CC[C@@]341 [Codeine]	–	–	–	–	10	30	–	–	–	–
NCC(CC(=O)O)c1ccc(Cl)cc1 (racemic) [baclofen]	–	–	–	–	~0.7	~0.7	dose-dependent reduction in cough frequency	dose-dependent	dose-dependent	dose-dependent reduction in cough frequency
